Measured values taken from patent publication US12152035B2, “Androgen receptor binding molecule and use thereof” (Industrial Technology Research Institute, priority 2020, dated 2024).

Test system: CWR22RV1 cells
Assay: Cytotoxicity assay (AlamarBlue, 72 hours)
Assay type: cell-based
Settings: 72 hours treatment, concentration not given
Method: Compound stock solutions of 10 mM were prepared with 100% DMSO and shaken for 10-15 seconds. The compound stock solutions were centrifuged at 12000 rpm (13523 rcf.) for 5 minutes and record the turbidity or precipitation state with a photo snapshot. The compound stock solutions were resuspended by shaking for 10-15 seconds, and serially diluted with 100% DMSO solution to make the compound concentration to 1000 μM, then to 100, 10, and 1 μM, and then 10-fold diluted with medium to 100, 10, 1, 0.1 μM (final 10% DMSO/medium) to complete compound test sample preparation. Compound treatment was performed by adding 10 μL of compound test sample to cells in each well of a 96-well plate (final 1% DMSO/medium).
Cells (CWR22Rv1 cells or VCaP cells) were cultured in RPMI-1640 medium supplemented with 10% fetal bovine serum, 10,000 U/mL penicillin and 10,000 μg/mL streptomycin. Cells were cultured at 37° C. in a humidified 5% CO2 incubator.
Cells were seeded in a 96-well plate (1×10^4 cells/well). 10 μL of the above compound test sample was added to each well of the 96-well plate on next day. After 72 hours of compound treatment, 10 μL of AlamaBlue reagent was added to each of 96 wells and incubated for 4 hours. The fluorescence value at Ex/Em=560/590 nm was read with a microplate reader, and the cytotoxicity (%) was calculated.
According to the above method, the compounds prepared above were subjected to cytotoxicity test with CWR22RV1 cells and VCaP cells.

Question: With Cc1ncsc1-c1ccc(CNC(=O)[C@@H]2C[C@H](O)CN2C(=O)[C@@H](NC(=O)CCC#Cc2ccc(COc3ccc(C4CCN(C5=Nn6c(nnc6C(F)(F)F)CC5)CC4)cc3)cc2)C(C)(C)C)cc1 [Compound 2, (2S,4S)-1-((S)-3,3-dimethyl-2-(5-(4-((4-(1-(3-(trifluoromethyl)-7,8-dihydro-[1,2,4]triazolo[4,3-b]pyridazin-6-yl)piperidin-4-yl)phenoxy)methyl)phenyl)pent-4-ynamido)butanoyl)-4-hydroxy-N-(4-(4-methylthiazol-5-yl)benzyl)pyrrolidine-2-carboxamide] as the compound, how does the “Cytotoxicity, CWR22RV1 cells (cell viability %)” value read?
Answer: The value was “+ (60-80% : +)”.

Question: For Cc1ncsc1-c1ccc(CNC(=O)[C@@H]2C[C@H](O)CN2C(=O)[C@@H](NC(=O)COCCCOCCNC(=O)COc2ccc(C3CCN(C4=Nn5c(nnc5C(F)(F)F)CC4)CC3)cc2)C(C)(C)C)cc1 [Compound 3, (2S,4S)-1-((S)-2-tert-butyl-4,14-dioxo-15-(4-(1-(3-(trifluoromethyl)-7,8-dihydro-[1,2,4]triazolo[4,3-b]pyridazin-6-yl)piperidin-4-yl)phenoxy)-6,10-dioxa-3,13-diazapentadecane)-4-hydroxy-N-(4-(4-methylthiazol-5-yl)benzyl)pyrrolidine-2-carboxamide], which “Cytotoxicity, CWR22RV1 cells (cell viability %)” value is on record?
Answer: The value was “++ (40-60% : ++)”.

Question: Which “Cytotoxicity, CWR22RV1 cells (cell viability %)” value does the source give for Cc1ncsc1-c1ccc(CNC(=O)[C@@H]2C[C@H](O)CN2C(=O)[C@@H](NC(=O)CCOCCOCCN2CCN(c3ccc(C#Cc4ccc(C5CCN(C6=Nn7c(nnc7C(F)(F)F)CC6)CC5)cc4)cn3)CC2)C(C)(C)C)cc1 [Compound 4, (2S,4S)-1-((S)-3,3-dimethyl-2-(3-(2-(2-(4-(5-((4-(1-(3-(trifluoromethyl)-7,8-dihydro-[1,2,4]triazolo[4,3-b]pyridazin-6-yl)piperidin-4-yl)phenyl)ethynyl)pyridin-2-yl)piperazin-1-yl)ethoxy)ethoxy)propanamido)butanoyl)-4-hydroxy-N-(4-(4-methylthiazol-5-yl)benzyl)pyrrolidine-2-carboxamide] here?
Answer: The value was “+ (60-80% : +)”.

Question: For Cc1cc([C@H](C(=O)N2C[C@H](O)C[C@H]2C(=O)N[C@@H](CC(=O)NCCOCCCCOc2ccc(C3CCN(C4=Nn5c(nnc5C(F)(F)F)CC4)CC3)cc2)c2ccc(-c3scnc3C)cc2)C(C)C)on1 [Compound 6, (2S,4R)-4-hydroxy-1-((R)-3-methyl-2-(3-methylisoxazol-5-yl)butanoyl)-N—((S)-1-(4-(4-methylthiazol-5-yl)phenyl)-3-oxo-3-(2-(4-(4-(1-(3-(trifluoromethyl)-7,8-dihydro-[1,2,4]triazolo[4,3-b]pyridazin-6-yl)piperidin-4-yl)phenoxy)butoxy)ethylamino)propyl)pyrrolidine-2-carboxamide], which “Cytotoxicity, CWR22RV1 cells (cell viability %)” value is on record?
Answer: Its value is “− (<80% : −)”.
